Test results reported in US8697636B2 (priority 2007, dated 2014).
≈ marks a conversion by molar mass, not a printed value.

Assays:
C. perfringens = experiment: microbe, parasite or virus in culture; type: cell-based; conditions: Clostridium perfringens, read-out: minimum inhibitory concentration
[1] = tested on: pathogenic Clostridium sp.; conditions: cited from earlier work

Compound	MIC (C. perfringens)	activity against pathogenic Clostridium sp. [1]
Cc1ncc([N+](=O)[O-])n1CCO [metronidazole]	25 µg/mL (≈ 146 µM)	
ruminococcin A		active
